Measurements reported in a melting point compilation (Tetko et al.; mined from patent text by program, amines drawn as free bases though some values may be those of a salt).

| melting point [°C] | SMILES |
| --- | --- |
| 203 to 205 | Clc1ccc(-c2ncc3nc(Cl)cc(Cl)n23)cc1 |
| 210 | CC(=O)n1nc(C2CCN(CCc3c(C)nc4c(C)cccn4c3=O)CC2)c2ccc(F)cc21 |
| 186 to 188 | COC(=O)[C@H]1[C@H](N2C(=O)c3ccccc3C2=O)C(=O)N1Cc1ccc(OC)cc1OC (relative stereo) |
| 299 to 300 | O=S(=O)(C(=CNc1cccc(NC=C(S(=O)(=O)c2ccccc2)S(=O)(=O)c2ccccc2)n1)S(=O)(=O)c1ccccc1)c1ccccc1 |
| 179 to 180 | O=C1N(Cc2ccc(Cl)cc2)c2ccc(Br)cc2C1(O)c1ccc2c(c1)OCO2 (configuration not stated) |
| 165 to 168 | CCN(CC)CCn1nc2c3c(c(NC(=O)CN(CCOCc4ccccc4)Cc4ccccc4)ccc31)Oc1ccc(O)cc1-2 |
| 177 to 179 | CCC1(CC)CN(C2CC3(C)C(CCC4C5CCC(C(C)=O)C5(C)CC(=O)C43)CC2O)CCO1 (configuration not stated) |
| 262 to 264 | Cc1cc(=O)n2c3c(cc(C(O)(C(F)(F)F)C(F)(F)F)cc13)OC2 |
| 154 to 157 | CC(C)(C)C1CC(=CO)C(Cl)=C(C=O)C1 (configuration not stated) |
| 264 to 266 | Cn1cc(-c2cc3nccnc3[nH]2)c2ccccc21 |
| 104 to 106 | COc1cc(Nc2c(C#N)cnc3cc(-c4cccc(CN5CCN(C)CC5)c4)ccc23)c(Cl)cc1Cl |
| > 220 | CCOC(=O)c1cn(C2CC2)c2c(F)c(/C=C\c3cc(Cc4cnc(N)nc4N)cc(OC)c3OC)c(F)cc2c1=O |
| 152 | Cc1cc(C(=O)O)ccc1C1=CCCCC1C(C)(C)C (configuration not stated) |
| 276 to 277 | CC1(C)CCc2c(N3CCCC3)nc3sc4c(NCc5cncc6ccccc56)ncnc4c3c2C1 |
| 206 | CSc1ncc(CCN2CCC(C3(c4ccc(F)cc4)OCCO3)CC2)c(O)n1 |
| 204 | O=C(Nc1ccc2cc(CN3CCC(CCO)CC3)cnc2c1)c1ccc(-c2ccc(Cl)cc2)cc1 |
| 109 to 111 | O=C(Nc1ccc(-n2nc(C(F)(F)F)cc2C(F)(F)F)cc1)c1cc(F)c(F)cc1F |
| 79 to 82 | Cc1ccc(N2C=NC3CCCCC3C2=O)cc1 (configuration not stated) |
| 162 to 164 | OCCNc1nc2ccccc2o1 |
| 166 to 168 | CCN1CCCC1CNC(=O)c1c(O)ccc(Br)c1O (configuration not stated) |
| 135 to 140 | CN(CCCCCCCCNC(=O)NCCSCc1csc(NC(=N)N)n1)CCC(c1ccc(Cl)cc1)c1ccccn1 (configuration not stated) |
| 175 to 176 | Oc1ccc(N2CCN(Cc3nc4ccccc4s3)CC2)cc1 |
| 208 to 209 | CN(C)C=C(C(=O)C(=O)c1ccccc1)c1ccc(C(=O)O)cc1 |

| melting point [°C] | SMILES |
| --- | --- |
| 158 to 159 | NCCNc1ccc2ncc(Br)n2n1 |
| 142 to 144 | CCCCCNC(=O)n1nc(Oc2ncc(C(F)(F)F)cc2Cl)cc1C |
| 114 to 116 | CC(=O)NC[C@H]1CN(c2ccc(N3CCC4(CC3)CSCO4)c(F)c2)C(=O)O1 |
| > 300 | Oc1ncnc2c(-c3ccc(Br)cc3)cnn12 |
| 289 to 294 | Cc1c(C(=O)O)sc2[nH]c(=O)c(=O)[nH]c12 |
| 178 | CCCc1nn(C)c2c(NCc3ccc(OC)c(Cl)c3)nc(CCC(=O)O)nc12 |
| 100 to 101 | COC(=O)c1nc(-c2ccccc2)ccc1O |
| 122 to 124 | CN1CS(=O)c2cccc(F)c21 (configuration not stated) |
| 85 to 86 | CCN(CC)C(=O)n1ccc(S(=O)(=O)c2ccc(C)c(C)c2)n1 |
| 190 to 192 | CCOC(=O)c1c(C=O)c2ccc3oc4ccccc4c3c2n1C |
| 201 to 202 | Cc1oc(=O)oc1CN1CCN(c2cc3c(cc2F)c(=O)c(C(=O)O)c2n3C(c3ccccc3)S2)CC1 (configuration not stated) |
| 189 to 192 | CCOC(=O)N(CC(=O)O)n1nnc2ccccc21 |
| 201 to 203 | CC(C)c1cc(C(C)C)c(C=CCC(=O)O)c(C(C)C)c1 |
| 118 to 120 | COc1ccccc1NC(=O)Nc1ccc(N2CCN(C(=O)Nc3ccc(OCCO)cc3C(F)(F)F)CC2)cc1 |
| 150 to 152 | COC(=O)[C@H](Cc1ccc([N+](=O)[O-])cc1)NC(=S)C1(CCCCS(C)(=O)=O)CCC1 |
| 75 to 76 | CCCCCCCCCCCCNCC(O)CO (configuration not stated) |
| 145 to 147 | Cc1c(NCCNC(=O)OC(C)(C)C)c([N+](=O)[O-])c2nnnn2c1C |
| 153 to 156 | CCCCCCCCCCCc1[nH]c2cc(C(=O)O)ccc2c1C |
| 117 to 118 | C=C(c1ccc(C(=O)OC)cc1)c1ccc2c(c1)C(C)(C)CCC2(C)C |
| 253 to 256 | Nc1cc2c3c(cccc3c1N1CCCC1)C(=O)N(O)C2=O |
| 216 to 218 | COc1nc2ccccc2nc1NC(=O)N1CCN(c2cc([N+](=O)[O-])cc([N+](=O)[O-])c2)CC1 |
| 134 to 135 | CN(Cc1cc(C(F)(F)F)cc(C(F)(F)F)c1)C(=O)c1ncc2ccccc2c1-c1ccc(F)cc1 |
| 176 to 179 | COc1cc(C)nc(NC(=O)NS(=O)(=O)c2ccccc2OCCOS(C)(=O)=O)n1 |

| melting point [°C] | SMILES |
| --- | --- |
| 103 to 104 | O=C(O)/C(=N/OCc1ccccc1)c1ccc(OCCOc2ccc3ccccc3c2)s1 |
| 138 to 140 | CC(C)(C)NC(=O)Nc1nc2nc(S(C)(=O)=O)ncc2cc1-c1c(Cl)cccc1Cl |
| 202 to 204 | Cc1ccn(-c2ncc(C(=O)N3Cc4cccn4Cc4ccccc43)c(C(F)(F)F)n2)n1 |
| 123 to 124 | O=C(Nc1ccc2c(c1)C(O)CC2)C(F)(F)F (configuration not stated) |
| 94 to 96 | CCCCOC(=O)[C@H]1CN(c2ccc(C3CCSCC3)cc2)C(=O)O1 |
| 162 | O=C1CCCN(Cc2ccc([N+](=O)[O-])cc2Cl)c2ncccc21 |
| 68 to 70 | C=CCNc1nc(NCCCC)c2scc(C)c2n1 |
| 232 to 234 | COc1ccc(C=C2c3ccccc3C(=NOCC(=O)O)c3ccccc32)cc1O |
| 134 | O=S(=O)(NCC1CC1)c1cccc(-c2cc(-c3nc(-c4ccc(C(F)(F)F)cc4)cc(C(F)(F)F)n3)ccn2)c1 |
| 168 to 169 | N#Cc1ccc(NC(=O)c2cccc(OCc3ccc(Cl)cn3)c2)cc1 |
| 110 to 112 | O=C(Nc1cccc(-c2ccc(C(=O)O)cc2)c1)OCC1c2ccccc2-c2ccccc21 |
| 28.5 | CCCCCC[C@H]1C[C@@H](C)OC1=O (relative stereo) |
| 53 to 54 | CCCCCCCCCCC[C@H](CC(=O)N[C@@H](CO)C(=O)OCc1ccccc1)OC(=O)CCCCCCCCCC |
| 78 to 84 | CCOc1ccccc1C(=N)N |
| 116 to 120 | CCCNC(=O)[C@@H](C)NC(=O)OCc1ccccc1 |
| 82 to 83 | N#Cc1c(Cl)ccc2ccccc12 |
| 62 to 66 | O=C(C(=O)c1ccc(F)cc1Br)c1ccccc1 |
| 200 to 205 | Cn1cc(-c2cccc(-n3ncc4cc(C(C)(C)C)cc(F)c4c3=O)c2CO)cc(Nc2ccc(C(C)(C)O)cn2)c1=O |
| 142 to 150 | COc1cc(OC)nc(OC(C(=O)O)C(C)(C)C#N)n1 (configuration not stated) |
| 196 to 197 | O=C(/C=C/c1ccc(C(F)(F)F)cc1-c1cccnc1)Nc1ccc2[nH]ccc2c1 |
| 216 to 218 | N#Cc1ccc(N2CCN(c3ccnc(Cl)n3)CC2)cc1 |
| 153 to 154 | O=Cc1ccc(COC(=O)Nc2cccc3ccccc23)cc1 |
| 280 to 282 | Cc1cc(C)c2c(O)c(O)c(O)nc2c1 |

| melting point [°C] | SMILES |
| --- | --- |
| 269 to 271 | CC(c1oc2ccccc2c(=O)c1-c1cccc(F)c1)n1nc(-c2ccc(N3CCOCC3)nc2)c2c(N)ncnc21 (configuration not stated) |
| 177 to 178 | O=S(=O)(c1ccc(Br)cc1)N1CCC2(C=Cc3ccccc32)CC1 |
| 184 to 186 | CCc1cc(-c2ccncc2)cc(CC)c1C(C(N)=O)C(N)=O |
| 230 to 237 | Cc1sc2cc3ccccc3c(-c3ccc(OS(=O)(=O)c4ccc(C(=O)O)c(O)c4)c(C4CCCC4)c3)c2c1C |
| 171 to 172 | Cc1c(NC(=O)c2ccc(-c3ccc(F)cc3)cc2)ccc2cc(CN3CCC(c4ccccc4)CC3)cnc12 |
| 122 to 123 | COc1cc(OC)cc(-c2ncoc2-c2cc(N)c(OC)cc2O)c1 |
| 158 to 160 | C/C(=C\C=C\c1ccccc1)C(=O)NCCCCCC(=O)NO |
| 50 to 54 | CC(=O)SCCC(=O)[C@H]1CC[C@H]1C(=O)O (relative stereo) |
| 70 to 72 | COc1ccc(C=C(C(C)=O)C(C)=O)cc1 |
| 193 to 195 | Nc1ncc(S(=O)c2ccncc2)s1 (configuration not stated) |
| 190 to 192 | CSc1nc(N)ncc1S(=O)(=O)NC(=O)NC(C)C |
| 123 to 124 | COc1cc(COc2nn(-c3ccccc3)cc2CCO)ccc1OCc1nc(-c2ccco2)oc1C |
| 206 | O=c1[nH]c(-c2ccc(Cl)cc2)c(CN2CCOCC2)s1 |
| 97 to 98 | CCCC(=O)SC1CCN(C(C(=O)C2CC2)c2ccccc2F)CC1 (configuration not stated) |
| 164 to 167 | O=C1c2c(OCc3ccccc3)c(OCc3ccccc3)cc(OCc3ccccc3)c2-c2nn(CCNCCO)c3ccc(Cl)c1c23 |
| 145 | [N-]=[N+]=N[C@H]1C[C@H](C(=O)Nc2ccc(N3CCOCC3=O)cc2)N(C(=O)Nc2ccc(Cl)cc2)C1 |
| 122 to 125 | CCOC(=O)C(C#N)=CNc1ncccc1CC |
| 67 to 68 | c1ccc(N=c2sc3ccccc3s2)cc1 |
| 67 to 69 | CC(C)(C)c1cc(OCCCC#N)cc(C(C)(C)C)c1O |
| 145 to 147 | Cc1ccc(C=C(C#N)S(=O)(=O)c2ccccc2)cc1 |
| 214 to 217 | CC(C)n1nc(-c2nc(N)cnc2-c2ccccc2)ccc1=O |
| 76 to 78 | N#CC1(c2ccc(OC(F)F)c(OC3CCCC3)c2)CCC(=O)CC1 |
| 153 to 154 | O=C1COc2cc(SCc3ccccc3)ccc2N1 |

| SMILES | melting point [°C] |
| --- | --- |
| Cc1ccc2ccc(N3C(=O)c4ccccc4C3OC(=O)N3CCN(C)CC3)nc2n1 (configuration not stated) | 190 |
| C/C=C/Cn1nc(C(=O)c2cccc(O)c2)c2ccccc21 | 75 to 78 |
| Cc1ccccc1-n1c(Cn2cnc3c(N)ncnc32)nc2cccc(Cl)c2c1=O | 262 to 266 |
| CNC1(c2ccccc2)CCC(=O)CC1 | 32 to 38 |
| N#Cc1ccc(C(=O)N2CC2C#N)cc1 (configuration not stated) | 107 to 110 |
